43 compounds from patent publication US20250099448A1, “HETEROCYCLIC COMPOUNDS” (Hoffmann-La Roche Inc., priority 2022, published 2025) can be followed below.

Molecules are shown by their SMILES.

In the experiment the target is T1, MAGL protein (Homo sapiens, UniProt Q99685).
T1 sequence (Q99685 1-303): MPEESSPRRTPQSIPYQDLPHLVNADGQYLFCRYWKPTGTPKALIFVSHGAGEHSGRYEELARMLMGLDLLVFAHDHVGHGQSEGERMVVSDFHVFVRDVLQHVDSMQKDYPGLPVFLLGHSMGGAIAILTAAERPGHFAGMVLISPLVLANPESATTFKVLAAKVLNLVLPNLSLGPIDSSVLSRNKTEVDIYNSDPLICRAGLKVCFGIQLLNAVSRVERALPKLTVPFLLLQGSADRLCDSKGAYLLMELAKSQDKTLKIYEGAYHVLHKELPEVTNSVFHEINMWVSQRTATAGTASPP
The experiment is described as follows: 2-AG assay: MAGL inhibitory activity by hydrolysis of 2-arachidonoylglycerol to arachidonic acid, followed by mass spectrometry. Type of experiment: biochemical. Conditions: 8 μM 2-arachidonoylglycerol, 15 min preincubation, 30 min reaction at RT, RapidFire MS readout. In a few lines:
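Activity was measured by RapidFire SPE–triple-quad MS as the ratio of arachidonic acid to d8-arachidonic acid after 2-AG hydrolysis (8 μM substrate, 30 min, RT, acetonitrile quench). Compounds, tested from 12.5 μM down to […], were first preincubated 15 min with MAGL in TRIS/EDTA/Tween-20 buffer containing 2.5% DMSO.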
By IC50 is commonly meant the midpoint of a concentration-inhibition curve. Lower therefore signals greater potency in that assay. `O=C(N1CC2(CC(Cc3ncc(Cl)cc3F)C2)C1)N1CC2(CC(c3nc(C4(O)CC4)n[nH]3)C2)C1` [compound 676] showed a concentration for half-maximal inhibition (IC50) of 2.94 nM.

Consider `N#Cc1ccc(CC2CC3(C2)CN(C(=O)N2CC4(CC(c5nc(C6CC(F)(F)C6)n[nH]5)C4)C2)C3)cc1C(F)(F)F` [compound 677], for which the IC50 came to 13 nM.

On to `O=C(N1CC2(CC(c3nnc(C4CC4)[nH]3)C2)C1)N1CC2(C1)CN(c1ncc(C(F)(F)F)cc1F)C2` [compound 678], for which the 50% inhibitory concentration (IC50) was 33.9 nM.

`O=C(N1CC2(CC(Cc3cc(C(F)(F)F)nn3CC(F)(F)F)C2)C1)N1CC2(CC(c3nc(C4CC4)n[nH]3)C2)C1` [compound 679] showed a concentration for half-maximal inhibition (IC50) of 0.15 nM.

`CP(C)(=O)c1cc(F)cc(CC2CC3(C2)CN(C(=O)N2CC4(CC(c5nc(C6CC6)n[nH]5)C4)C2)C3)c1` [compound 680] showed an IC50 of 1.71 nM.

`Cn1nc(CN2CC3(C2)CN(C(=O)N2CC4(CC(c5nc(C6CC6)n[nH]5)C4)C2)C3)cc1C(F)(F)F` [compound 681] came in with a concentration for half-maximal inhibition (IC50) of 7.41 nM.

Consider `O=C(N1CC2(CC(c3nnc(C4CC4)[nH]3)C2)C1)N1CC2(C1)CN(c1ccc(C(F)(F)F)cn1)C2` [compound 682], for which 38.4 nM corresponded to half-maximal inhibition (IC50).

With `O=C(N1CC2(CC(Cc3nc(C(F)(F)F)no3)C2)C1)N1CC2(CC(c3nc(C4CC4)n[nH]3)C2)C1` [compound 683], the midpoint of inhibition, the IC50, lay at 0.21 nM.

With `O=C(N1CC2(CC(Cc3ccc4[nH]ncc4n3)C2)C1)N1CC2(CC(c3nc(C4CC4)n[nH]3)C2)C1` [compound 684], half-maximal inhibition (IC50) was put at 4.33 nM.

The compound `CS(=O)(=O)c1cc(F)ccc1C12CC(C3CN(C(=O)N4CC5(CC(c6nc(C7CC7)n[nH]6)C5)C4)C3)(C1)C2` [compound 685] showed an IC50 of 0.96 nM.

In the case of `Cc1onc(C2CC2)c1CN1CC2(C1)CN(C(=O)N1CC3(CC(c4nc(C5CC5)n[nH]4)C3)C1)C2` [compound 686], the IC50 turned out to be 14.2 nM.

As for `N=S(=O)(c1ccc(CC2CC3(C2)CN(C(=O)N2CC4(CC(c5nc(C6CC(F)(F)C6)n[nH]5)C4)C2)C3)cc1)C(F)(F)F` (stereo not shown) [compound 687], the concentration for half-maximal inhibition (IC50) is 54.1 nM.

With `Cn1ncc(CN2CC3(C2)CN(C(=O)N2CC4(CC(c5nc(C6CC6)n[nH]5)C4)C2)C3)c1C(F)(F)F` [compound 688], the IC50 was found to be 8.96 nM.

The compound `O=C(N1CC2(CC(Cn3cc(CC(F)(F)F)cn3)C2)C1)N1CC2(CC(c3nc(C4CC4)n[nH]3)C2)C1` [compound 690] displayed an IC50 of 0.61 nM.

`Cn1ncc(C(F)(F)F)c1CC1CC2(C1)CN(C(=O)N1CC3(CC(c4nc(C5CC5)n[nH]4)C3)C1)C2` [compound 691] came in with an IC50 of 0.16 nM.

`O=C(N1CC2(CC(Cc3ccc4[nH]ncc4n3)C2)C1)N1CC2(CC(c3nc(C4(O)CC4)n[nH]3)C2)C1` [compound 692] had a half-inhibitory concentration (IC50) of 20.1 nM.

In the case of `O=C(N1CC2(CC(c3nc(C4CC4)n[nH]3)C2)C1)N1CC2(CN(Cc3nc(C(F)(F)F)co3)C2)C1` [compound 693], the IC50 stood at 24.5 nM.

Regarding `O=C(N1CC2(CC(c3nnc(C4CC4)[nH]3)C2)C1)N1CC2(C1)CN(c1ncc(C(F)(F)F)cn1)C2` [compound 694], the 50% inhibitory concentration (IC50) turned out to be 236 nM.

The compound `O=C(N1CC2(CC(c3nc(C4CC4)n[nH]3)C2)C1)N1CC2(CN(Cc3nc(CC(F)(F)F)no3)C2)C1` [compound 695] displayed an IC50 of 43.8 nM.

In turn, `N=S(=O)(c1ccc(C2CN(C(=O)N3CC4(CC(c5nc(C6(O)CC6)n[nH]5)C4)C3)C2)cc1)C(F)(F)F` (stereo not shown) [compound 697] showed an IC50 of 2.65 nM.

The compound `O=C(N1CC2(CC(c3nc(C4CC4)n[nH]3)C2)C1)N1CC2(CN(Cc3nccn3CC(F)(F)F)C2)C1` [compound 698] displayed a half-maximal inhibitory concentration (IC50) of 55.9 nM.

As for `O=C(N1CC(C23CC(Nc4cnc(C(F)(F)F)cn4)(C2)C3)C1)N1CC2(CC(c3nc(C4CC4)n[nH]3)C2)C1` [compound 699], the half-maximal inhibitory concentration (IC50) came out at 0.34 nM.

`O=C(N1CC2(CC(c3nc(C4CC4)n[nH]3)C2)C1)N1CC2(CN(Cc3sncc3C(F)(F)F)C2)C1` [compound 700] gave an IC50 of 2.56 nM.

Compound `O=C(N1CC2(CC(c3nc(C4CC4)n[nH]3)C2)C1)N1CC2(CN(Cc3ncoc3C(F)(F)F)C2)C1` [compound 701] yielded an IC50 of 64.4 nM.

Consider `O=C(N1CC(C23CC(c4cc(C5CC5)n[nH]4)(C2)C3)C1)N1CC2(CC(c3nc(C4CC(F)(F)C4)n[nH]3)C2)C1` [compound 702], for which inhibition was half-maximal at 255 nM (IC50).

Regarding `O=C(N1CC2(CC(c3nc(C4CC4)n[nH]3)C2)C1)N1CC2(CCN(Cc3ccc(S(=O)(=O)C(F)(F)F)cc3)C2)C1` [compound 703], the half-inhibitory concentration (IC50) was 2.63 nM.

`O=C(N1CC2(CC(Cc3nc(C(F)(F)F)cs3)C2)C1)N1CC2(CC(c3nc(C4CC4)n[nH]3)C2)C1` [compound 704] displayed an IC50 of 0.3 nM.

`COc1cc(F)cc(C23CC(C4CN(C(=O)N5CC6(CC(c7nc(C8CC8)n[nH]7)C6)C5)C4)(C2)C3)c1` [compound 705] gave a 50% inhibitory concentration (IC50) of 0.57 nM.

For `O=C(N1CCC(C23CC(c4nnc(C5(C(F)(F)F)CC5)o4)(C2)C3)CC1)N1CC2(CC(c3nc(C4(O)CC4)n[nH]3)C2)C1` [compound 706], the IC50 is 280 nM.

Consider `O=C(N1CC(C23CC(Oc4cnc(C(F)(F)F)cn4)(C2)C3)C1)N1CC2(CC(c3nc(C4CC4)n[nH]3)C2)C1` [compound 707], for which the IC50 was found to be 2.44 nM.

`O=C(N1CC(c2cnc(N3CC[C@H](C(F)(F)F)C3)nc2)C1)N1CC2(CC(c3nc(C4CC4)n[nH]3)C2)C1` [compound 708] came in with an IC50 of 2.63 nM.

The compound `O=C(N1CC2(CC(c3nc(C4CC4)n[nH]3)C2)C1)N1CC2(CN(Cc3nccn3C(F)(F)F)C2)C1` [compound 709] came in with an IC50 of 24.3 nM.

In turn, `O=C(N1CC2(CC(Cc3ccc(OC(F)(F)F)nc3)C2)C1)N1CC2(CC(c3nc(C4(O)CC4)n[nH]3)C2)C1` [compound 710] showed a half-inhibitory concentration (IC50) of 2.61 nM.

`O=C(N1CC2(CC(Cn3cc(C4(C(F)(F)F)CC4)cn3)C2)C1)N1CC2(CC(c3nc(C4CC4)n[nH]3)C2)C1` [compound 711] came in with an IC50 of 0.2 nM.

In turn, `Cc1cc(C)n(C23CC(C4CN(C(=O)N5CC6(CC(c7nc(C8(O)CC8)n[nH]7)C6)C5)C4)(C2)C3)n1` [compound 712] came in with an IC50 of 497 nM.

`O=C(N1CC2(CC(c3nc(C4CC4)n[nH]3)C2)C1)N1CC2(CN(Cc3cc(C(F)(F)F)ns3)C2)C1` [compound 713] came in with an IC50 of 3.42 nM.

Consider `O=C(N1CC2(CC(c3nc(C4(O)CC4)n[nH]3)C2)C1)N1CC2(CCN(Cc3ccc(S(=O)(=O)C(F)(F)F)cc3)C2)C1` [compound 714], for which the half-maximal inhibitory concentration (IC50) amounted to 30 nM.

`N=S(=O)(c1ccc(CC2CC3(C2)CN(C(=O)N2CC4(CC(c5nc(C6(O)CC6)n[nH]5)C4)C2)C3)c(F)c1)C(F)(F)F` (stereo not shown) [compound 715] had a half-maximal inhibitory concentration (IC50) of 0.45 nM.

As for `O=C(N1CC2(CC(Cn3nccc3C(F)(F)F)C2)C1)N1CC2(CC(c3nc(C4COC4)n[nH]3)C2)C1` [compound 716], the 50% inhibitory concentration (IC50) amounted to 29.2 nM.

As to `O=C(N1CC2(CC(c3nc(C4CC4)n[nH]3)C2)C1)N1CC2(CN(Cc3ccnn3CC(F)(F)F)C2)C1` [compound 717], the half-maximal inhibitory concentration (IC50) amounted to 83.8 nM.

As to `O=C(N1CC2(CC(c3nc(C4CC4)n[nH]3)C2)C1)N1CC2(CN(Cc3ccc[nH]c3=O)C2)C1` [compound 718], half-maximal inhibition (IC50) required 550 nM.

`N#Cc1cnn(CC2CC3(C2)CN(C(=O)N2CC4(CC(c5nc(C6(O)CC6)n[nH]5)C4)C2)C3)c1` [compound 719] showed a 50% inhibitory concentration (IC50) of 68.9 nM.

In turn, `O=C(N1CC2(CC(Cc3ccc(OC(F)(F)F)cn3)C2)C1)N1CC2(CC(c3ncn[nH]3)C2)C1` [compound 721] had a half-inhibitory concentration (IC50) of 544 nM.
